From paper PMC3485206, “Integrative Binding Sites within Intracellular Termini of TRPV1 Receptor” (PLoS ONE, 2012)
Substitutions are numbered along the chain they refer to. In names and notes the source's numbering stands. Entries after “also recorded” stand apart in the source; their conditions may differ.

B1: K770A/R778A/R785A: triple alanine mutant of TRPV1-CT (712–838) thioredoxin fusion protein (protein, UniProt O35433 712-838, looked up, variant K770A R778A R785A)
chain: FLKCMRKAFRSGKLLQVGFTPDGKDDYRWCFRVDEVNWTTWNTNVGIINEDPGNCEGVARTLSFSLASGRVSGANWKNFALVPLLRDASTRDRHATQQEEVQLKHYTGSLKPEDAEVFKDSMVPGEK
modifications: thioredoxin fusion, His tag
notes: triple alanine mutant of TRPV1-CT (712–838) thioredoxin fusion protein
B2: K770A/R781A/R785A: triple alanine mutant of TRPV1-CT (712–838) thioredoxin fusion protein (protein, UniProt O35433 712-838, looked up, variant K770A R781A R785A)
chain: B1 chain with A67R, R70A
modifications: thioredoxin fusion, His tag
notes: as for B1

Experiments:
[1] = Surface plasmon resonance, binding to PC/PIP2 liposomes on sensor chip; settings: for Kd: SPR equilibrium binding, PC/PIP2 (20∶1) liposomes, 25°C, HBSS, read-out: equilibrium dissociation constant KD; for binding to PIP2 containing liposomes (in words): SPR, PC/PIP2 liposomes
Experimental: All SPR measurements were performed at 25°C using a liposome-coated NLC chip in aProteOn XPR36 Protein Interaction Array System (Bio-rad, Hercules, CA, USA). […] Lipid solution (10 mg/ml) in HBSS was mixed with 8 µM oligonucleotide 5′-[…]-3′, modified at the 3′ end with cholesterol (Generi-Biotech, Hradec Kralove, Czech Republic), and the mixture was extruded using a LiposoFast Basic apparatus (Avestin Europe, Mannheim, Germany) with a polycarbonate membrane with a 100-nm pore diameter (Avestin Europe, Mannheim, Germany). The lipid/DNA ratio was 1200∶1. The vesicles were then incubated with 8 µM anti-sense oligonucleotide 5′-[…]-3′, modified at the 5′ end with biotin (Generi-Biotech, Hradec Kralove, Czech Republic), and washed by centrifugation (50,000 g) for 30 min at 4°C. The vesicles were diluted to a final concentration of 1 mg/ml in HBSS and immobilized on the streptavidin-coated NLC chip (Bio-rad, Hercules, CA, USA) surface at a flow rate of 25 µl/min for 10 min to give ∼800 −1500 resonance units (RU). All SPR measurements were carried out in HBSS at a flow rate of 30 µl/min for both the association and dissociation phase of the sensograms. For determining equilibrium binding, the association phases of five different concentrations of each protein were brought to near-equilibrium values (Req). Surfaces were typically regenerated with 50 µl of 1 M NaCl and 20 mM glycin buffer, pH 3.5. The sensograms were corrected for sensor background by interspot referencing (the sites within the 6×6 array which are not exposed to ligand immobilization but are exposed to analyte flow), and double referenced by subtraction of the analyte using a “blank” injection. Assuming a Langmuir-type binding between the protein (P) and protein binding sites (S) on vesicles (i.e. P + S ↔ PS), Req values were then plotted versus protein concentration (P0), and the KD value was determined by nonlinear least-squares analysis of the binding isotherm using the equation Req = Rmax/(1+KD/P0).

CaM = tested on: CaM; set-up: method as in PMID 18755153; settings: TRPV1-CT fusion protein mutants; cited from earlier work
[2] = Steady state fluorescence anisotropy binding assay with PIP2-Bodipy; settings: for Kd: PIP2-Bodipy 10 nM titrated with protein or peptide, room temperature, read-out: equilibrium dissociation constant KD
Experimental: (§1) Peptides were dissolved in 50 mM Tris-HCl (pH 7.5), 100 mM NaCl buffer and were used for measurements of fluorescence anisotropy. Steady-state fluorescence anisotropy measurements were performed in an ISS Photon Counting Steady-State Spectrofluorimeter (ISS PC1TM) at room temperature with a PIP2-Bodipy® FL C5, C6-PtdIns(4,5)P2 molecular probe (Invitrogen, cat. n. B22627, Figure S3A), hereafter denoted as PIP2-Bodipy and the control experiment was done with 16∶0-06∶0 NBD PC 1-palmitoyl-2-{6-[(7-nitro-2-1,3-benzoxadiazol-4-yl)amino]hexanoyl}-sn-glycero-3-phosphocholine in chloroform (NBD-PC), (Avanti Polar Lipids, Inc. Cat. n. 810130C, Figure S3B) The PIP2-Bodipy probe was diluted in deionized H2O. The final concentration of the fluorescently labeled probe in the measuring buffer in the cuvette was 10 nM and increasing amounts of peptides and fusion protein TRPV1 respectively were titrated into the cuvette. PIP2-Bodipy excitation and emission wavelengths were set to 500 nm and 512 nm and for NBD – PC 460 nm and 534 nm respectively. At each peptide concentration, steady-state fluorescence anisotropy was recorded. The fraction of TRPV1s regions or their mutants bound to fluorescent probe was determined from the anisotropy changes using Eq. (1), where FB is the fraction bound, rmin and rmax are the anisotropies of the free and bound PIP2-Bodipy with TRPV1-CT, pTRPV1 regions or its mutants, robs is the observed anisotropy, and Q is the ratio of the intensities of the free and bound protein (fmax/fmin). All experiments were carried out in at least triplicate. [drawing 1] (1)
The FB was plotted against the TRPV1 peptides and fusion proteins concentration respectively and fitted using Eq. (2) to determine the equilibrium dissociation constant (KD). Non-linear data fitting was performed using the package SigmaPlot 2000 (6.1) SPSS Inc. P1 is the concentration of PIP2-Bodipy and P2 is the concentration of TRPV1 fusion protein or TRPPV1 synthetic peptides. [drawing 2] (2)

[3] = Control SPR with liposomes containing only phosphatidylcholine; type: binding; settings: liposomes not containing PIP2
Experimental: All SPR measurements were performed at 25°C using a liposome-coated NLC chip in aProteOn XPR36 Protein Interaction Array System (Bio-rad, Hercules, CA, USA). Liposomes (100 nm in diameter) were made from 1,2-dimyristoyl-sn-glycero-3-phosphocholine (PC) and L-α-phosphatidylinositol-4,5-bisphosphate (PIP2) (Avanti Lipids, Alabaster, AL, USA) at a molar ratio of 20∶1 (PC/PIP2). Lipid solution (10 mg/ml) in HBSS was mixed with 8 µM oligonucleotide 5′-[…]-3′, modified at the 3′ end with cholesterol (Generi-Biotech, Hradec Kralove, Czech Republic), and the mixture was extruded using a LiposoFast Basic apparatus (Avestin Europe, Mannheim, Germany) with a polycarbonate membrane with a 100-nm pore diameter (Avestin Europe, Mannheim, Germany). The lipid/DNA ratio was 1200∶1. The vesicles were then incubated with 8 µM anti-sense oligonucleotide 5′-[…]-3′, modified at the 5′ end with biotin (Generi-Biotech, Hradec Kralove, Czech Republic), and washed by centrifugation (50,000 g) for 30 min at 4°C. […] Assuming a Langmuir-type binding between the protein (P) and protein binding sites (S) on vesicles (i.e. P + S ↔ PS), Req values were then plotted versus protein concentration (P0), and the KD value was determined by nonlinear least-squares analysis of the binding isotherm using the equation Req = Rmax/(1+KD/P0).

[4] = ELISA, influence of liposome composition on binding to immobilized TRPV1-CT; settings: liposomes of different composition
Experimental: The lipids L-α-phosphatidylinositol-4,5-bisphosphate (PIP2), 1,2-dimyristoyl-sn-glycero-3- Phosphatidylserine (PS), 1,2-dimyristoyl-sn-glycero-3-phosphocholine (PC) and 1,2-dimyristoyl-sn-glycero-3- Phosphatidylethanolamine (PE) were obtained from Avanti Polar Lipis, Inc. A stock solution of each lipid was prepared in chloroform, except for PIP2 stock solution, which was prepared in a chloroform:methanol (2∶1) mixture. Liposomes of the following compositions were prepared: PC, PC/PIP2 97/3%, PC/PIP2 90/10%, PC/PIP2/PS 70/10/20%, PC/PIP2/PS/PE 40/10/20/30%, PC/PIP2/PE 70/10/20%, PC/PIP2/PE 77/3/20%, PC/PE/PS 50/30/20% by mixing appropriate volumes of the stock solutions. After being dried under an N2 stream, lipid films were hydrated with 1× HBSS buffer containing 8 µM oligonucleotide 5′-[…]-3′, modified at the 3′ end with cholesterol (Generi-Biotech, Hradec Kralove, Czech Republic)- followed by extrusion 20 times through a polycarbonate membrane with a 100-nm pore diameter (Avestin Europe, Mannheim, Germany). Finally 8 µM complementary oligonucleotide Biotin conjugate 5′-[…]-3′ (Generi-Biotech, Hradec Kralove, Czech Republic) was added to the liposome mixture. A 20-min incubation was followed by centrifugation and washing steps to remove the unbound oligonucleotide-Biotin conjugate.
96-well micro titer plates were used. […] Absorbance was read at 490 nm using a micro plate reader.

[5] = Control steady-state fluorescence anisotropy with NBD-PC; type: binding; settings: NBD-PC 10 nM
Experimental: as §1, with “PIP2-Bodipy excitation and emission wavelengths were set to 500 nm and 512 nm and for NBD – PC 460 nm and 534 nm respectively.” left out, “All experiments were carried out in at least triplicate. [drawing 1] (1)” left out

| Molecule | Kd [1] | binding to PIP2 containing liposomes (in words) [1] | also measured |
| --- | --- | --- | --- |
| K770A/R785A: double alanine mutant of TRPV1-CT (712–838) thioredoxin fusion protein | 5.8 ± 0.8 µM | suppressed this interaction partially | – |
| R771A/R778A: double alanine mutant of TRPV1-CT (712–838) thioredoxin fusion protein | > 150 µM | total loss of binding affinity; also recorded: avoided PIP2 binding totally | – |
| R771A/R781A: double alanine mutant of TRPV1-CT (712–838) thioredoxin fusion protein | 33.5 ± 11.7 µM | suppressed this interaction partially | – |
| R771A: single alanine mutant of TRPV1-CT (712–838) thioredoxin fusion protein | – | preserves its binding ability to PIP2 | CaM binding (in words) (CaM): significantly inhibits the CaM binding |
| R778A: single alanine mutant of TRPV1-CT (712–838) thioredoxin fusion protein | > 150 µM | total loss of binding affinity; also recorded: inhibited the PIP2 binding | CaM binding (in words) (CaM): did not prevent CaM binding |
| R781A: single alanine mutant of TRPV1-CT (712–838) thioredoxin fusion protein | 9.1 ± 3.8 µM | – | – |
| TRPV1-CT: rat TRPV1 C-tail amino acids 712–838 expressed in E. coli as fusion protein with thioredoxin and 6× His tags | 3 ± 0.4 µM | – | SPR binding response ([1]; protein washed over PC/PIP2 liposome chip after regeneration step): approx. 1000 RU; Kd ([2]; listed as WT TRPV1-CT): 3.5 ± 0.9 µM; Kd [2]: 3.48 µM; interaction with liposomes containing only PC (in words) [3]: just a weak interaction was detected; selectivity for PIP2 over other lipids (in words) [4]: modest selectivity for PIP2 over other used lipids; interaction with NBD PC (in words) [5]: no interaction |
| thioredoxin: fusion tag protein titrated alone as control [reference compound] | – | – | binding to PIP2-Bodipy (in words) ([2]; PIP2-Bodipy 10 nM): no thioredoxin–PIP2 binding |
| B1 | > 150 µM | total loss of binding affinity; also recorded: avoided PIP2 binding totally | – |
| B2 | 3.6 ± 0.5 µM | – | – |
